This note sets out measurements from ChEMBL document CHEMBL1146154, “Inhibitors of Plasmepsin II-potential antimalarial agents” (Bioorg Med Chem Lett, 2006).

Structures are written as SMILES.

Assay [1] has as its target Plasmepsin II (Plasmodium falciparum, UniProt P46925). Briefly: Inhibition of PM2 by FRET assay.
Assay [2] relates to Plasmodium falciparum. Description: Antimalarial activity against Plasmodium falciparum infected human RBC. Format: functional, organism-based.

Sequence of Plasmepsin II (P46925 whole entry): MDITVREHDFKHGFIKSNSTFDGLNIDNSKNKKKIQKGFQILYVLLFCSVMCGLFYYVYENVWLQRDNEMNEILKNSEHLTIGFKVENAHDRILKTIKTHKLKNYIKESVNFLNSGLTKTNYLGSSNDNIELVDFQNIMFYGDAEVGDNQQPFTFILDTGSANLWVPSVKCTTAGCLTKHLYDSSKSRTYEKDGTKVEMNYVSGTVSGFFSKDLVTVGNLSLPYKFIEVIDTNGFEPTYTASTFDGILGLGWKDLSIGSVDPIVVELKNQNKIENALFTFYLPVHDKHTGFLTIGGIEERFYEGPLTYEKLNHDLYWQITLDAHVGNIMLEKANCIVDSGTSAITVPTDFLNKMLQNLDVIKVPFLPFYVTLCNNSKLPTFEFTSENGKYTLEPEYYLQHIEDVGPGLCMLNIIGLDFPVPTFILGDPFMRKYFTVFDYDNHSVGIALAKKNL

For the compound `CCCCCc1ccc(C(=O)N(CCN(CCCC)CCCC)Cc2ccc(-c3ccc(CC(=O)N4CCOCC4)cc3)cc2)cc1`, the IC50 – broadly, the midpoint of a concentration-inhibition curve – was 74 nM in assay [1] and 885 nM in assay [2].

Consider `CCCCCc1ccc(C(=O)N(CCN(CCCC)CCCC)Cc2ccc(NCc3ccccc3)cc2)cc1`, for which the results for the IC50 in assay [1] and in assay [2] were 429 nM and 686 nM, respectively.

Consider `CCCCCc1ccc(C(=O)N(CCN(CCCC)CCCC)Cc2ccc(N3CCSCC3)cc2)cc1`, for which the values for the IC50 in assay [1] and in assay [2] were 188 nM and 1760 nM, respectively.

In the case of `CCCCCc1ccc(C(=O)N(CCN(CCCC)CCCC)Cc2ccc(N(CC)CC)cc2)cc1`, the IC50 in assay [1] was determined as 1490 nM; in assay [2] it was 550 nM.

For `CCCCCc1ccc(C(=O)N(CCN(CCCC)CCCC)Cc2ccc(-c3ccc(C(=O)N(C)C)cc3)cc2)cc1`, the IC50 came out at 77 nM in assay [1] and 859 nM in assay [2].

`CCCCCc1ccc(C(=O)N(CCN(CCCC)CCCC)Cc2ccc(-c3cccnc3)cn2)cc1`: the results for the IC50 in assay [1] and in assay [2] were 5270 nM and 465 nM, respectively.

Consider `CCCCCc1ccc(C(=O)N(CCN(CCCC)CCCC)Cc2ccc(-c3ccc(C(=O)N4CCSCC4)cc3)cc2)cc1`, for which the IC50 turned out to be 56 nM in assay [1] and 751 nM in assay [2].

For the compound `CCCCCc1ccc(C(=O)N(CCN(CCCC)CCCC)Cc2ccc(NC(=O)c3cnccn3)cc2)cc1`, the IC50 in assay [1] was determined as 243 nM; in assay [2], 605 nM.

In the case of `CCCCCc1ccc(C(=O)N(CCN(CC)CCN(CC)CC)Cc2ccc(-c3ccc4c(c3)OCO4)cc2)cc1`, in assay [1], it took 439 nM to reach half-maximal inhibition (IC50).

Consider `CCCCCc1ccc(C(=O)N(CCN(CCCC)CCCC)Cc2ccc(-c3ccc(CC(=O)OC)cc3)cc2)cc1`, for which the IC50 was found to be 183 nM in assay [1] and 2470 nM in assay [2].

Turning to `CCCCCc1ccc(C(=O)N(CCN(CCCC)CCCC)Cc2ccc(-c3cccnc3)nc2)cc1`, the figures for the IC50 in assay [1] and in assay [2] were 587 nM and 458 nM, respectively.

In the case of `CCCCCc1ccc(C(=O)N(CCN(CCCC)CCCC)Cc2ccc(-c3ccc4c(c3)OCO4)nc2)cc1`, the IC50 in assay [1] was found to be 437 nM; in assay [2] it was 677 nM.

Turning to `CCCCCc1ccc(C(=O)N(CCN(CCCC)CCCC)Cc2ccc(-n3cccc3)cc2)cc1`, the IC50 in assay [1] amounted to 240 nM; in assay [2] it was 825 nM.

`CCCCCc1ccc(C(=O)N(CCN(CCCC)CCCC)Cc2ccc(N3CCN(C)CC3)cc2)cc1`: the IC50 is 2550 nM in assay [1] and 431 nM in assay [2].

With `CCCCCc1ccc(C(=O)N(CCN(CCO)Cc2ccccc2)Cc2ccc(-c3ccc4c(c3)OCO4)cc2)cc1`, the IC50 in assay [1] is 334 nM.

The compound `CCCCCc1ccc(C(=O)N(CCN(CCC)CCC)Cc2ccc(-c3ccc4c(c3)OCO4)cc2)cc1` returned an IC50 in assay [1] of 531 nM.

Take `CCCCCc1ccc(C(=O)N(CCN(CCCC)CCCC)Cc2ccc(-c3ccc(CC(=O)NCc4ccccc4)cc3)cc2)cc1`: the IC50 amounted to 46 nM in assay [1] and 340 nM in assay [2].

Regarding `CCCCCc1ccc(C(=O)N(CCN(CCCC)CCCC)Cc2ccc(-c3ccccc3)cc2)cc1`, the IC50 in assay [1] is 143 nM; in assay [2] it was 2440 nM.

In the case of `CCCCCc1ccc(C(=O)N(CCN(CCCC)CCCC)Cc2ccc(-c3cncnc3)cn2)cc1`, the IC50 in assay [1] worked out at 8530 nM; in assay [2], 639 nM.

`CCCCCc1ccc(C(=O)N(CCN2CCOCC2)Cc2ccc(-c3ccc4c(c3)OCO4)cc2)cc1` returned an IC50 in assay [1] of 2900 nM.

With `CCCCCc1ccc(C(=O)N(CCN(CCCC)CCCC)Cc2ccc(-c3ccc(CC(=O)O)cc3)cc2)cc1`, the IC50 in assay [1] came to 463 nM; in assay [2], 7150 nM.

As for `CCCCCc1ccc(C(=O)N(CCN(CCCC)CCCC)Cc2ccc(-c3ccc(OCCO)cc3)cc2)cc1`, the IC50 in assay [1] turned out to be 511 nM; in assay [2] it was 3660 nM.

With `CCCCCc1ccc(C(=O)N(CCN(CCCC)CCCC)Cc2ccc(-c3cncnc3)cc2)cc1`, the IC50 amounted to 531 nM in assay [1] and 2230 nM in assay [2].

On to `CCCCCc1ccc(C(=O)N(CCN(CCCC)CCCC)Cc2ccc(NC(=O)C3CCNCC3)cc2)cc1`, for which the IC50 in assay [1] was found to be 464 nM; in assay [2] it was 550 nM.

Consider `CCCCCc1ccc(C(=O)N(CCN(CCCC)CCCC)Cc2ccc(-c3cccnc3)cc2)cc1`, for which the IC50 in assay [1] was determined as 374 nM; in assay [2] it was 273 nM.

On to `CCCCCc1ccc(C(=O)N(CCCc2ccccc2)C2CCN(Cc3ccccc3)CC2)cc1`, for which the IC50 in assay [1] was found to be 1700 nM.

With `CCCCCc1ccc(C(=O)N(CCN(CCCC)CCCC)Cc2ccc(-c3ccc4c(c3)OCO4)cn2)cc1`, the IC50 was 1910 nM in assay [1] and 698 nM in assay [2].

The compound `CCCCCc1ccc(C(=O)N(CCN(CCCC)CCCC)Cc2ccc(-c3ccccn3)cc2)cc1` registered an IC50 in assay [2] of 1730 nM.

`CCCCCc1ccc(C(=O)N(CCN(C(C)C)C(C)C)Cc2ccc(-c3ccc4c(c3)OCO4)cc2)cc1` showed an IC50 in assay [1] of 1500 nM.

As to `CCCCCc1ccc(C(=O)N(CCN(CCCC)CCCC)Cc2ccc(N3CCN(c4ccccc4)CC3)cc2)cc1`, the IC50 is 200 nM in assay [1] and 1280 nM in assay [2].

`CCCCCc1ccc(C(=O)N(CCN2CCCCC2)Cc2ccc(-c3ccc4c(c3)OCO4)cc2)cc1`: in assay [1], the midpoint of inhibition, the IC50, lay at 334 nM.

Regarding `CCCCCc1ccc(C(=O)N(CCN(CCCC)CCCC)Cc2ccc(N3CCN(Cc4ccccc4)CC3)cc2)cc1`, the IC50 in assay [1] is 646 nM; in assay [2] it was 790 nM.

For `CCCCCc1ccc(C(=O)N(CCN(CCCC)CCCC)Cc2ccc(N3CCCCC3)cc2)cc1`, the IC50 in assay [1] was found to be 369 nM; in assay [2], 628 nM.

As to `CCCCCc1ccc(C(=O)N(CCN(CCCC)CCCC)Cc2ccc(-c3ccncc3)nc2)cc1`, the IC50 in assay [1] worked out at 642 nM; in assay [2], 457 nM.

Compound `CCCCCc1ccc(C(=O)N(CCN(CC)CC)Cc2ccc(-c3ccc4c(c3)OCO4)cc2)cc1` yielded an IC50 in assay [1] of 1520 nM.

For `CCCCCc1ccc(C(=O)N(CCN(CCCC)CCCC)Cc2ccc(-c3ccc4c(c3)OCO4)cc2)cc1`, the values for the IC50 in assay [1] and in assay [2] were 101 nM and 1200 nM, respectively.

In the case of `CCCCCc1ccc(C(=O)N(CCN(CCCC)CCCC)Cc2ccc(-c3ccccc3)nc2)cc1`, the IC50 was 589 nM in assay [1] and 609 nM in assay [2].

In the case of `CCCCCc1ccc(C(=O)N(Cc2ccc(-c3ccc(CC(=O)OC)cc3)cc2)C2CCN(CCC(C)C)CC2)cc1`, the figures for the IC50 in assay [1] and in assay [2] were 6 nM and 1.8 nM, respectively.

Consider `CCCCCc1ccc(C(=O)N(CCN2CCC(Cc3ccccc3)CC2)Cc2ccc(-c3ccc4c(c3)OCO4)cc2)cc1`, for which, in assay [1], the IC50 was 190 nM.

`CCCCCc1ccc(C(=O)N(CCN(CCCC)CCCC)Cc2ccc(Nc3ccccc3)cc2)cc1`: the values for the IC50 in assay [1] and in assay [2] were 224 nM and 539 nM, respectively.

`CCCCCc1ccc(C(=O)N(CCN(CCCC)CCCC)Cc2ccc(N(C)Cc3ccccc3)cc2)cc1`: the IC50 in assay [1] amounted to 289 nM; in assay [2], 609 nM.

Take `CCCCCc1ccc(C(=O)N(CCN(CCCC)CCCC)Cc2ccc(N(C)c3ccccc3)cc2)cc1`: the IC50 in assay [1] worked out at 574 nM; in assay [2], 617 nM.

`CCCCCc1ccc(C(=O)N(CCN2CCC(CCCc3ccccc3)CC2)Cc2ccc(-c3ccc4c(c3)OCO4)cc2)cc1` yielded an IC50 in assay [1] of 165 nM.

Take `CCCCCc1ccc(C(=O)N(CCN(CCCC)CCCC)Cc2ccc(-c3ccncc3)cc2)cc1`: the concentration for half-maximal inhibition (IC50) in assay [1] was 212 nM; in assay [2] it was 583 nM.

For `CCCCCc1ccc(C(=O)N(CCN(CCCC)CCCC)Cc2ccc(Nc3ccncc3)cc2)cc1`, the IC50 in assay [1] was found to be 1820 nM; in assay [2], 207 nM.

Regarding `CCCCCc1ccc(C(=O)N(CCN(CCCC)CCCC)Cc2ccc(-c3ccncc3)cn2)cc1`, the IC50 in assay [1] turned out to be 4550 nM; in assay [2], 630 nM.

Consider `CCCCCc1ccc(C(=O)N(CCN(CCCC)CCCC)Cc2ccc(N(C)c3ccncc3)cc2)cc1`, for which the figures for the IC50 in assay [1] and in assay [2] were 3010 nM and 453 nM, respectively.

With `CCCCCc1ccc(C(=O)N(CCN(CCCC)CCCC)Cc2ccc(NC(=O)C3CCCNC3)cc2)cc1` (centres undefined), the half-inhibitory concentration (IC50) in assay [1] worked out at 202 nM; in assay [2], 376 nM.

Take `CCCCCc1ccc(C(=O)N(CCN(CCCC)CCCC)Cc2ccc(-c3ccccn3)nc2)cc1`: the figures for the IC50 in assay [1] and in assay [2] were 736 nM and 411 nM, respectively.

As for `CCCCCc1ccc(C(=O)N(CCN(CCCC)CCCC)Cc2ccc(-c3ccc(C(=O)NCc4ccccc4)cc3)cc2)cc1`, the IC50 stood at 72 nM in assay [1] and 566 nM in assay [2].

Consider `CCCCCc1ccc(C(=O)N(CCN(CCCC)CCCC)Cc2ccc(-c3ccc(CC(=O)N(C)Cc4ccccc4)cc3)cc2)cc1`, for which the IC50 in assay [1] was determined as 91 nM; in assay [2] it was 725 nM.

As for `CCCCCc1ccc(C(=O)N(CCN(CCCC)CCCC)Cc2ccc(NC(=O)c3ccnc(OC)c3)cc2)cc1`, the IC50 came to 154 nM in assay [1] and 623 nM in assay [2].

Consider `CCCCCc1ccc(C(=O)N(CCN(CCCC)CCCC)Cc2ccc(-c3ccccc3)cn2)cc1`, for which the IC50 is 2350 nM in assay [1] and 693 nM in assay [2].

With `CCCCCc1ccc(C(=O)N(CCN(CCCC)CCCC)Cc2ccc(-c3cncnc3)nc2)cc1`, the results for the IC50 in assay [1] and in assay [2] were 2230 nM and 560 nM, respectively.

With `CCCCCc1ccc(C(=O)N(CCN(CCCC)CCCC)Cc2ccc(-n3ccc4ccccc43)cc2)cc1`, the IC50 in assay [1] was found to be 670 nM; in assay [2], 739 nM.
